Measurements as given in patent publication US9051310B2, “Nicotinamide derivative or salt thereof” (FUJIFILM Corporation, priority 2011, dated 2015).

Target: T1, glutathione S-transferase (GST)-linked full-length human Syk protein (Homo sapiens, UniProt P43405)
T1 construct: glutathione S-transferase (GST)-linked full-length human Syk protein; purchased Carna Biosciences; host or cells: Baculovirus expression system
Assay: Syk enzyme assay
Assay type: biochemical
Details: 0.83 nM Syk, time-resolved fluorescence; read-out: IC50 of Syk-inhibitory activity
Outline: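 Phosphotyrosine on a biotin-peptide substrate (0.5 μM) was read by time-resolved fluorescence at 615 and 665 nm with Eu-anti-pTyr antibody and APC-streptavidin after 1 h EDTA stop.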

Row | Compound | IC50 [µM]
1 | COCCn1nc(N(C)C)c2cc(Nc3nc(N[C@H](C4CC4)[C@H](C)N)c(F)cc3C(N)=O)ccc21 [Example 2-504] | 0.01 to 0.05
2 | COCCn1nc(N(C)C)c2cc(Nc3nc(N[C@H](CC(C)C)[C@H](C)N)c(F)cc3C(N)=O)ccc21 [Example 2-505, 6-(((2S,3R)-2-amino-5-methylhexan-3-yl)amino)-2-((3-(dimethylamino)-1-(2-methoxyethyl)-1H-indazol-5-yl)amino)-5-fluoronicotinamide] | 0.01 to 0.05
3 | C[C@H](N)[C@H](Nc1nc(Nc2ccc3c(c2)c(N(C)C)nn3C)c(C(N)=O)cc1F)c1cccs1 [Example 2-510, 6-(((1S,2S)-2-amino-1-(thiophen-2-yl)propyl)amino)-2-((3-(dimethylamino)-1-methyl-1H-indazol-5-yl)amino)-5-fluoronicotinamide] | < 0.01
4 | C[C@H](N)[C@H](Nc1nc(Nc2cnc(N3CCOCC3)c(F)c2)c(C(N)=O)cc1F)c1ccc(Cl)s1 [Example 2-511, 6-(((1S,2S)-2-amino-1-(5-chlorothiophen-2-yl)propyl)amino)-5-fluoro-2-((5-fluoro-6-morpholinopyridin-3-yl)amino)nicotinamide] | 0.01 to 0.05
5 | CCn1ncc2c(Nc3nc(N[C@H](c4ccc(Cl)s4)[C@H](C)N)c(F)cc3C(N)=O)cccc21 [Example 2-512, 6-(((1S,2S)-2-amino-1-(5-chlorothiophen-2-yl)propyl)amino)-2-((1-ethyl-1H-indazol-4-yl)amino)-5-fluoronicotinamide] | < 0.01
6 | C[C@H](N)[C@H](Nc1nc(Nc2cnc(N3CCOCC3)c(F)c2)c(C(N)=O)cc1F)c1ccccc1F [Example 2-513, 6-(((1R,2S)-2-amino-1-(2-fluorophenyl)propyl)amino)-5-fluoro-2-((5-fluoro-6-morpholinopyridin-3-yl)amino)nicotinamide] | 0.01 to 0.05
7 | Cc1cnn(-c2cncc(Nc3nc(N[C@H](CC(C)C)[C@H](C)N)c(F)cc3C(N)=O)c2)c1 [Example 2-525, 6-(((2S,3R)-2-amino-5-methylhexan-3-yl)amino)-5-fluoro-2-((5-(4-methyl-1H-pyrazol-1-yl)pyridin-3-yl)amino)nicotinamide] | < 0.01
8 | Cc1cnn(-c2cncc(Nc3nc(N[C@@H]4CCOC[C@@H]4N)c(F)cc3C(N)=O)c2)c1 [Example 2-526, 6-(((3R,4R)-3-aminotetrahydro-2H-pyran-4-yl)amino)-5-fluoro-2-((5-(4-methyl-1H-pyrazol-1-yl)pyridin-3-yl)amino)nicotinamide] | < 0.01
9 | Cc1cnn(-c2cncc(Nc3nc(N[C@H](C4CC4)[C@H](C)N)c(F)cc3C(N)=O)c2)n1 [Example 2-532, 6-(((1R,2S)-2-amino-1-cyclopropylpropyl)amino)-5-fluoro-2-((5-(4-methyl-2H-1,2,3-triazol-2-yl)pyridin-3-yl)amino)nicotinamide] | < 0.01
10 | COCCn1nc(OC)c2cc(Nc3nc(N[C@H](C4CCC4)[C@H](C)N)c(F)cc3C(N)=O)ccc21 [Example 2-540] | < 0.01

Now from value to compound:

Row | IC50 [µM] | Compound
11 | 0.01 to 0.05 | COCCn1nc(N(C)C)c2cc(Nc3nc(N[C@H](C4CCC4)[C@H](C)N)c(F)cc3C(N)=O)ccc21 [Example 2-506, 6-(((1R,2S)-2-amino-1-cyclobutylpropyl)amino)-2-((3-(dimethylamino)-1-(2-methoxyethyl)-1H-indazol-5-yl)amino)-5-fluoronicotinamide]
12 | 0.05 to 0.1 | CC[C@H](N)[C@@H](C)Nc1nc(Nc2ccc3c(c2)c(N(C)C)nn3CCOC)c(C(N)=O)cc1F [Example 2-507, 6-(((2R,3S)-3-aminopentan-2-yl)amino)-2-((3-(dimethylamino)-1-(2-methoxyethyl)-1H-indazol-5-yl)amino)-5-fluoronicotinamide]
13 | < 0.01 | CCn1ncc2c(Nc3nc(N[C@H](c4cccs4)[C@H](C)N)c(F)cc3C(N)=O)cccc21 [Example 2-509, 6-(((1S,2S)-2-amino-1-(thiophen-2-yl)propyl)amino)-2-((1-ethyl-1H-indazol-4-yl)amino)-5-fluoronicotinamide]
14 | < 0.01 | CCn1ncc2c(Nc3nc(N[C@H](c4ccccc4F)[C@H](C)N)c(F)cc3C(N)=O)cccc21 [Example 2-514, 6-(((1R,2S)-2-amino-1-(2-fluorophenyl)propyl)amino)-2-((1-ethyhl-1H-indazol-4-yl)amino)-5-fluoronicotinamide]
15 | 0.01 to 0.05 | COc1ncc(Nc2nc(N[C@@H]3CCCC[C@@H]3N)c(F)cc2C(N)=O)cc1C(C)=O [Example 2-515, 2-((5-acetyl-6-methoxypyridin-3-yl)amino)-6-(((1R,2S)-2-aminocyclohexyl)amino)-5-fluoronicotinamide]
16 | < 0.01 | C[C@H](N)[C@H](Nc1nc(Nc2cncc(-n3cc(Cl)cn3)c2)c(C(N)=O)cc1F)C1CC1 [Example 2-520, 6-(((1R,2S)-2-amino-1-cyclopropylpropyl)amino)-2-((5-(4-chloro-1H-pyrazol-1-yl)pyridin-3-yl)amino)-5-fluoronicotinamide]
17 | < 0.01 | Cc1cnn(-c2cncc(Nc3nc(N[C@H](C4CCC4)[C@H](C)N)c(F)cc3C(N)=O)c2)c1 [Example 2-523, 6-(((1R,2S)-2-amino-1-cyclobutylpropyl)amino)-5-fluoro-2-((5-(4-methyl-1H-pyrazol-1-yl)pyridin-3-yl)amino)nicotinamide]
18 | < 0.01 | Cc1cnn(-c2cncc(Nc3nc(N[C@@H](CN)CC(C)C)c(F)cc3C(N)=O)c2)c1 [Example 2-524, (R)-6-((1-amino-4-methylpentan-2-yl)amino)-5-fluoro-2-((5-(4-methyl-1H-pyrazol-1-yl)pyridin-3-yl)amino)nicotinamide]
19 | 0.05 to 0.1 | Cc1nn(-c2cncc(Nc3nc(N[C@H](C4CC4)[C@H](C)N)c(F)cc3C(N)=O)c2)nc1C [Example 2-534, 6-(((1R,2S)-2-amino-1-cyclopropylpropyl)amino)-2-((5-(4,5-dimethyl-2H-1,2,3-triazol-2-yl)pyridin-3-yl)amino)-5-fluoronicotinamide]
20 | 0.01 to 0.05 | COCCNc1nn(CCOC)c2ccc(Nc3nc(N[C@@H]4CCCC[C@@H]4N)c(F)cc3C(N)=O)cc12 [Example 2-535, 6-(((1R,2S)-2-aminocyclohexyl)amino)-5-fluoro-2-((1-(2-methoxyethyl)-3-((2-methoxyethyl)amino)-1H-indazol-5-yl)amino)nicotinamide]
21 | 0.01 to 0.05 | CC[C@@H](Nc1nc(Nc2ccc3c(c2)c(NCCOC)nn3CCOC)c(C(N)=O)cc1F)[C@H](C)N [Example 2-536, 6-(((2S,3R)-2-aminopentan-3-yl)amino)-5-fluoro-2-((1-(2-methoxyethyl)-3-((2-methoxyethyl)amino)-1H-indazol-5-yl)amino)nicotinamide]
22 | 0.01 to 0.05 | COCCNc1nn(CCOC)c2ccc(Nc3nc(N[C@H](C4CC4)[C@H](C)N)c(F)cc3C(N)=O)cc12 [Example 2-537, 6-(((1R,2S)-2-amino-1-cyclopropylpropyl)amino)-5-fluoro-2-((1-(2-methoxyethyl)-3-((2-methoxyethyl)amino)-1H-indazol-5-yl)amino)nicotinamide]
23 | < 0.01 | CC(C)C[C@H](CN)Nc1nc(Nc2ccc3c(c2)c(OC(F)F)nn3C)c(C(N)=O)cc1F [Example 2-541, (R)-6-((1-amino-4-methylpentan-2-yl)amino)-2-((3-(difluoromethoxy)-1-methyl-1H-indazol-5-yl)amino)-5-fluoronicotinamide]
